The values that follow come from PubChem BioAssay (NCI).

Assay in all cases: growth of human tumour cells (NCI), 48 h
The subject of test [1] is UO-31 renal.
Test [2] concerns HCT-116 colon.
The test system of test [3] is PC-3 prostate.
In test [4] the test system is 786-0 renal.
For test [5], the system named is SW-620 colon.
In test [6] the test system is SNB-19 CNS.
Test [7] relates to DU-145 prostate.
Test [8] relates to MCF7 breast.
The test system of test [9] is CAKI-1 renal.
Test [10] deals with MDA-MB-231 breast.
For test [11], the system named is HL-60(TB) leukemia.
In test [12] the test system is SK-MEL-2 melanoma.
Test [13] deals with SK-OV-3 ovarian.
The subject of test [14] is A498 renal.
Test [15] has as its system IGROV1 ovarian.
Test [16] concerns NCI-H226 lung.
Test [17] concerns TK-10 renal.
Test [18] has as its system XF 498 CNS.
Test [19] has as its system DMS 114 small cell lung.

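Compound exposure: 48 hours, 5 concentrations, 96-well plates. Here, GI50 denotes the concentration required for 50% inhibition of growth. TGI is the concentration that stops growth completely.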 Where only a bound is given, the exact number is not on record here.

For `CN(C)CCCN1c2ccccc2Sc2ccc3ccccc3c21`, the TGI in [1] was determined as 17 µM; in test [2] it was 22.9 µM; in test [3], 14.6 µM; in test [4] it was 23.4 µM; in test [5] it was 22.6 µM; in test [6], 28.8 µM. Moreover, the TGI was determined as 25.4 µM in [7]; 14.9 µM in [8]; 18.1 µM in [9]; 13.7 µM in test [10]; 0.0372 µM in [11]; 13.1 µM in test [12]. In addition, the TGI in [13] came to 27.5 µM; in test [14], 14 µM; in [15], 23.4 µM; in test [16], 19 µM; in [17], 17.7 µM.

As for `O=C1C(Cl)=C(Nc2ccc(S(=O)(=O)O)cc2)C(=O)c2ccccc21`, the TGI in test [1] is 29.2 µM; in test [2] it was above 100 µM; in test [3], 69.5 µM; in test [4], 84.6 µM; in test [5], 51.1 µM; in [6], above 100 µM. Moreover, the TGI in [7] is 36.5 µM; in test [8] it was 49.1 µM; in [9], above 100 µM; in [10], above 100 µM; in test [11], above 100 µM; in test [12], 59.6 µM. Further, the TGI in test [15] was above 100 µM; in [16] it was 61.9 µM; in test [17], 42.9 µM.

`CCCc1c(-c2ccccc2)[nH]c2ccccc2c1=O`: the TGI is 69.1 µM in test [1]; 72.8 µM in test [2]; above 100 µM in test [3]; above 100 µM in test [5]; above 100 µM in test [6]; above 100 µM in test [7]. Moreover, the TGI is above 100 µM in [8]; above 100 µM in test [10]; above 100 µM in test [11]; 96.7 µM in [12]; above 100 µM in test [13]; 79 µM in test [14]. Besides, the TGI in test [15], in test [16] and in test [17] was above 100 µM in each case.

As for `O=C1OC2(CC1C1(O)C3CC4CC(C3)CC1C4)C1CC3CC(C1)CC2C3` (stereo not given), the TGI in test [18], in [1], in [2], in test [5], in test [11] and in [12] was above 100 µM each time. For the same compound, the TGI in [14] is 84.5 µM; in test [15] it was above 100 µM; in test [19] it was above 100 µM; in test [16] it was above 100 µM; in [17] it was above 100 µM.

`Cn1c(=O)c2[nH]c(CCNC(=O)c3ccccc3)nc2n(C)c1=O`: the TGI in [1], in [2], in test [3], in test [4], in [5] and in test [6] was above 100 µM throughout. Moreover, the TGI in test [7], in test [9], in test [10], in test [12], in test [14] and in test [15] was above 100 µM each time. Also, the TGI in [16] and in [17] was above 100 µM each time.

With `N#C[C@H](OC1OC(COC2OC(CO)C(O)C(O)C2O)C(O)C(O)C1O)c1ccccc1` (stereo not given in full), the TGI in test [18] was above 25 µM; in test [1], above 250 µM; in test [2] it was above 250 µM; in [5], above 250 µM; in test [6], above 250 µM; in test [8] it was above 250 µM. Besides, the TGI was above 250 µM in test [9]; above 141 µM in [11]; above 250 µM in test [12]; above 250 µM in test [13]; above 11.6 µM in test [14]; above 250 µM in [15]. The TGI in test [19] and in test [16] was above 250 µM in each case. In test [11], the GI50 was above 141 µM.

`O=C(Nc1nc2ccc([N+](=O)[O-])cc2s1)C(=O)C(C(=O)c1ccccc1F)C1OC(=O)c2ccccc21` (stereo not given): the TGI in test [18] was above 100 µM; in [1], above 100 µM; in test [2] it was above 100 µM; in test [5], above 100 µM; in test [6], above 100 µM; in [9], 98.5 µM. Besides, the TGI in test [11] is 51.2 µM; in test [12] it was above 100 µM; in test [13], 93.7 µM; in test [14], above 100 µM; in test [15], above 100 µM; in test [19], 87.3 µM. In [17], this compound showed a TGI above 100 µM.

With `O=c1ssc(=Nc2ccccc2)n1-c1ccccc1`, the TGI in test [1] is 31.7 µM; in test [3], 38.5 µM; in test [4], 34.6 µM; in test [5] it was 51.8 µM; in [6] it was above 100 µM; in test [7] it was 39.9 µM. For the same compound, the TGI is 35.7 µM in test [8]; 60.5 µM in test [10]; 96.2 µM in test [11]; 53.9 µM in test [12]; above 100 µM in test [13]; above 100 µM in [14]. The figures for the TGI in test [16] and in [17] were 46.5 µM and above 100 µM, respectively.

For `CCOC(=O)c1c(C)nc2c1c(CN(C)C)c(O)c1[nH]c(C)c(C)nc12`, the TGI is above 100 µM in test [1]; 42.8 µM in [2]; 54.5 µM in test [3]; 49.5 µM in test [4]; 95.2 µM in test [5]; above 100 µM in test [6]. Also, the TGI in test [7] was above 100 µM; in test [8] it was 52.1 µM; in test [9], above 100 µM; in test [11], 25.2 µM; in test [12], 43.8 µM; in test [13], 92.3 µM. Also, the TGI in test [14] is 40 µM; in test [15] it was above 100 µM; in [16], 62.1 µM; in test [17] it was 72.8 µM.
